Source: patent US10562912B2 (C&C Research Laboratories, priority 2013, dated 2020)

Legend:
Assay type in all cases: cell-based
[1] = target: T1, STAT3 (Homo sapiens, UniProt P40763); assay: STAT3 reporter gene assay (luciferase), LNCaP stable cell line (pSTAT3-TA-luc), IL-6 stimulation
T1 construct: plasmid pSTAT3-TA-luc), which contains a stably operating STAT3 promoter; endogenous in cells
In short: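 Cytotoxicity was run on a duplicate plate with CellTiter-Glo, while the other plate gave luciferase read-outs from lysed LNCaP pSTAT3-TA-luc reporter cells. Cells were treated with graded compound concentrations plus IL-6 (10 ng/mL final) for 24–48 h in 3% DCC-FBS medium. Unstimulated and stimulated wells served as negative and positive controls.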

[2] = system: LNCaP; assay: Cell growth inhibition assay, prostate cancer cell line LNCaP (medium with 10 ng/mL IL-6); conditions: Homo sapiens, medium supplemented with 10 ng/mL of IL-6, 10,000 cells/well
[3] = system: HEL92.1.7; assay: Cell growth inhibition assay, blood cancer cell line HEL92.1.7; conditions: Homo sapiens, HEL 92.1.7, HEL92.1.7 blood cancer cell line
In short: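 Cells were seeded at 3,000/well (HCT116, DU-145) or 5,000/well (SW626 and the others) and exposed to serial compound dilutions for 72 to 96 h at 37 °C under 5% CO2. Viability was read as CellTiter-Glo luminescence against 0.1% DMSO and cell-free wells.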

[4] = system: DU-145; assay: Cell growth inhibition assay, prostate cancer cell line DU-145; conditions: Homo sapiens, DU-145 prostate cancer cell line
In short: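 Readout was CellTiter-Glo luminescence after 72–96 h of compound exposure at 37 °C, 5% CO2. Plating density was 3,000 cells/well for DU-145 and HCT116 and 5,000 cells/well for SW626. Controls were 0.1% DMSO wells and medium-only wells.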

T1 sequence (P40763 whole entry): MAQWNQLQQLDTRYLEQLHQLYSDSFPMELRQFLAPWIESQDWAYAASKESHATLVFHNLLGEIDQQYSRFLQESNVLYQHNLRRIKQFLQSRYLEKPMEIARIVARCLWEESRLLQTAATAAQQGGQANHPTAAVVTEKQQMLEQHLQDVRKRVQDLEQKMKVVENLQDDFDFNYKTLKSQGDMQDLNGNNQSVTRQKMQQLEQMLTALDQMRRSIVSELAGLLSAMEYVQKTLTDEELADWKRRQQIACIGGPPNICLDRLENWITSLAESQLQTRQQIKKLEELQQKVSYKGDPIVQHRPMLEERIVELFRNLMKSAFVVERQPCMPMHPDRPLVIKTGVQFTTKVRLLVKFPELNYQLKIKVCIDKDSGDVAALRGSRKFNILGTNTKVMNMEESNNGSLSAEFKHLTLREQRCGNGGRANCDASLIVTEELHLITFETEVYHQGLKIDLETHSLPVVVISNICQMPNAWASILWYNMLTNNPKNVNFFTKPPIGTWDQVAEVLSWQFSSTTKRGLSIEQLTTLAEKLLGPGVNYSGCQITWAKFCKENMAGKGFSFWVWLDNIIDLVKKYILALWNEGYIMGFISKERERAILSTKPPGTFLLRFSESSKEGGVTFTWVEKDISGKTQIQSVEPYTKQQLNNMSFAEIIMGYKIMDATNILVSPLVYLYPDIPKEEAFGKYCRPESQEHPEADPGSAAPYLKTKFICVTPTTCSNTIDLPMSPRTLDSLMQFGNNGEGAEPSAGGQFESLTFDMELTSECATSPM

| SMILES | IC50 [1] | IC50 [2] | IC50 [3] | IC50 [4] |
| --- | --- | --- | --- | --- |
| CN(c1cc2cc(C(=O)Nc3cc(Cl)cc(-c4ccc(F)cc4F)c3)sc2cc1F)S(C)(=O)=O [Example 329, N-(5-chloro-2′,4′-difluoro-[1,1′-biphenyl]-3-yl)-6-fluoro-5-(N-methylmethylsulfonamido)benzo[b]thiophene-2-carboxamide] | 0.01 µM | 0.008 µM | 0.009 µM | 0.004 µM |
| CC(C)(c1cc(Cl)cc(NC(=O)c2cc3cc(NS(C)(=O)=O)ccc3s2)c1)n1cnccc1=O [Example 189] | > 10 µM | > 10 µM | > 1.1 µM | > 1.1 µM |
| COc1cc(F)cc(C(C)(C)c2cc(Cl)cc(NC(=O)c3cc4cc(NS(C)(=O)=O)ccc4s3)c2)c1 [Example 67, N-(3-chloro-5-(2-(3-fluoro-5-methoxyphenyl)propan-2-yl)phenyl)-5-(methylsulfonamido)benzo[b]thiophene-2-carboxamide] | 0.067 µM | 0.037 µM | 0.11 µM | 0.042 µM |
| CC(C)Oc1cc(OC(F)(F)F)cc(C(C)(C)c2cc(Cl)cc(NC(=O)c3cc4cc(NS(=O)(=O)C5CCS(=O)(=O)CC5)ccc4s3)c2)c1 [Example 205, N-(3-chloro-5-(2-(3-isopropoxy-5-(trifluoromethoxy)phenyl)propan-2-yl)phenyl)-5-((1,1-dioxidotetrahydro-2H-thiopyran)-4-sulfonamido)benzo[b]thiophene-2-carboxamide] | 0.3 µM | 0.31 µM | 0.58 µM | 0.063 µM |
| CS(=O)(=O)Nc1ccc2sc(C(=O)Nc3cc(Br)cc(S(=O)(=O)N4CCc5c(F)cc(F)cc5C4)c3)cc2c1 [Example 419, N-(3-bromo-5-((5,7-difluoro-3,4-dihydroisoquinolin-2(1H)-yl)sulfonyl)phenyl)-5-(methylsulfonamido)benzo[b]thiophene-2-carboxamide] | 0.67 µM | 1 µM | 1.8 µM | 0.65 µM |
| CC(C)Oc1cc(OC(F)(F)F)cc(C(C)(C)c2cc(Cl)cc(NC(=O)c3cc4cc(NS(=O)(=O)C(C)C)ccc4s3)c2)c1 [Example 203, N-(3-chloro-5-(2-(3-isopropoxy-5-(trifluoromethoxy)phenyl)propan-2-yl)phenyl)-5-((1-methylethyl)sulfonamido)benzo[b]thiophene-2-carboxamide] | 0.006 µM | 0.023 µM | 0.017 µM | 0.008 µM |
| CC(C)Oc1cc(OC(F)(F)F)cc(C(C)(C)c2cc(Cl)cc(NC(=O)c3cc4cc(N5CCCCS5(=O)=O)ccc4s3)c2)c1 [Example 211, N-(3-chloro-5-(2-(3-isopropoxy-5-(trifluoromethoxy)phenyl)propan-2-yl)phenyl)-5-(1,1-dioxido-1,2-thiazinan-2-yl)benzo[b]thiophene-2-carboxamide] | 0.007 µM | 0.05 µM | 0.066 µM | 0.014 µM |
| COc1ccc(C(C)(C)c2cc(Cl)cc(NC(=O)c3cc4cc(NS(C)(=O)=O)ccc4s3)c2)cc1 [Example 155, N-(3-chloro-5-(2-(4-methoxyphenyl)propan-2-yl)phenyl)-5-(methylsulfonamido)benzo[b]thiophene-2-carboxamide] | 0.078 µM | 0.034 µM | 0.13 µM | 0.061 µM |
| COc1cc(OC(F)(F)F)cc(-c2cc(Cl)cc(NC(=O)c3cc4cc(NS(=O)(=O)C5CCOC5)ccc4s3)c2)c1 (stereo not drawn) [Example 328, N-(5-chloro-3′-methoxy-5′-(trifluoromethoxy)-[1,1′-biphenyl]-3-yl)-5-((tetrahydrofuran)-3-sulfonamido)benzo[b]thiophene-2-carboxamide] | 0.34 µM | 0.34 µM | 0.5 µM | 0.39 µM |
| CCS(=O)(=O)Nc1ccc2sc(C(=O)Nc3cc(Cl)cc(C(C)(C)c4cc(OC(C)C)cc(OC(F)(F)F)c4)c3)cc2c1 [Example 202, N-(3-chloro-5-(2-(3-isopropoxy-5-(trifluoromethoxy)phenyl)propan-2-yl)phenyl)-5-(ethylsulfonamido)benzo[b]thiophene-2-carboxamide] | 0.007 µM | 0.014 µM | 0.013 µM | 0.007 µM |
| CC(C)Oc1cc(OC(F)(F)F)cc(C(C)(C)c2cc(Cl)cc(NC(=O)c3cc4cc(NS(=O)(=O)N5CCOCC5)ccc4s3)c2)c1 [Example 103, N-(3-chloro-5-(2-(3-isopropoxy-5-(trifluoromethoxy)phenyl)propan-2-yl)phenyl)-5-(morpholine-4-sulfonamido)benzo[b]thiophene-2-carboxamide] | 0.11 µM | 0.035 µM | 0.16 µM | 0.045 µM |
| CC(C)(c1cc(Cl)cc(NC(=O)c2cc3cc(NS(C)(=O)=O)ccc3s2)c1)c1cc(OC2CCNCC2)cc(OC(F)(F)F)c1 [Example 96, N-(3-chloro-5-(2-(3-(piperidin-4-yloxy)-5-(trifluoromethoxy)phenyl)propan-2-yl)phenyl)-5-(methylsulfonamido)benzo[b]thiophene-2-carboxamide] | 3.4 µM | > 1.1 µM | > 1.1 µM | > 1.1 µM |
| CC(C)(C)OC(=O)N1CCC(Oc2cc(OC(F)(F)F)cc(C(C)(C)c3cc(Cl)cc(NC(=O)c4cc5cc(NS(C)(=O)=O)ccc5s4)c3)c2)CC1 [Example 95, tert-butyl 4-(3-(2-(3-chloro-5-(5-(methylsulfonamido)benzo[b]thiophene-2-carboxamido)phenyl)propan-2-yl)-5-(trifluoromethoxy)phenoxy)piperidine-1-carboxylate] | 0.11 µM | 0.015 µM | 0.69 µM | 0.011 µM |
| CC(C)Oc1cc(OC(F)(F)F)cc(C(C)(C)c2cc(Cl)cc(NC(=O)c3cc4cc(N(C)S(C)(=O)=O)c(F)cc4s3)c2)c1 [Example 215, N-(3-chloro-5-(2-(3-isopropoxy-5-(trifluoromethoxy)phenyl)propan-2-yl)phenyl)-6-fluoro-5-(N-methylmethylsulfonamido)benzo[b]thiophene-2-carboxamide] | 0.002 µM | 0.006 µM | 0.007 µM | 0.002 µM |
| CC(C)(c1cc(F)cc(NC(=O)c2cc3cc(NS(C)(=O)=O)ccc3s2)c1)c1cc(OC(F)(F)F)cc(OC(F)(F)C(F)F)c1 [Example 85, N-(3-fluoro-5-(2-(3-(1,1,2,2-tetrafluoroethoxy)-5-(trifluoromethoxy)phenyl)propan-2-yl)phenyl)-5-(methylsulfonamido)benzo[b]thiophene-2-carboxamide] | 0.016 µM | 0.025 µM | 0.076 µM | 0.007 µM |
| COc1cc(OC(F)(F)F)cc(-c2cc(Cl)cc(NC(=O)c3cc4cc(NS(C)(=O)=O)ccc4s3)c2)c1 [Example 324, N-(5-chloro-3′-methoxy-5′-(trifluoromethoxy)-[1,1′-biphenyl]-3-yl)-5-(methylsulfonamido)benzo[b]thiophene-2-carboxamide] | 0.53 µM | 0.48 µM | 0.83 µM | 0.4 µM |
| C=CS(=O)(=O)Nc1ccc2sc(C(=O)Nc3cc(Cl)cc(C(C)(C)c4cc(OC(C)C)cc(OC(F)(F)F)c4)c3)cc2c1 [Example 207, N-(3-chloro-5-(2-(3-isopropoxy-5-(trifluoromethoxy)phenyl)propan-2-yl)phenyl)-5-(vinylsulfonamido)benzo[b]thiophene-2-carboxamide] | 3 µM | > 1.1 µM | > 1.1 µM | > 1.1 µM |
| CC(C)(c1ccc(Br)cc1)c1cc(Cl)cc(NC(=O)c2cc3cc(NS(C)(=O)=O)ccc3s2)c1 [Example 152, N-(3-(2-(4-bromophenyl)propan-2-yl)-5-chlorophenyl)-5-(methylsulfonamido)benzo[b]thiophene-2-carboxamide] | 0.12 µM | 0.059 µM | 0.21 µM | 0.047 µM |
| CC(C)Oc1cc(N2CCN(C)CC2)cc(C(C)(C)c2cc(Cl)cc(NC(=O)c3cc4cc(NS(C)(=O)=O)ccc4s3)c2)c1 [Example 147, N-(3-chloro-5-(2-(3-isopropoxy-5-(4-methylpiperazin-1-yl)phenyl)propan-2-yl)phenyl)-5-(methylsulfonamido)benzo[b]thiophene-2-carboxamide] | 0.67 µM | 0.8 µM | 1.04 µM | 0.47 µM |
| CC(C)(c1cc(F)cc(NC(=O)c2cc3cc(NS(C)(=O)=O)ccc3s2)c1)c1cc(CN2CCOCC2)cc(OC(F)(F)C(F)F)c1 [Example 140, N-(3-fluoro-5-(2-(3-(morpholinomethyl)-5-(1,1,2,2-tetrafluoroethoxy)phenyl)propan-2-yl)phenyl)-5-(methylsulfonamido)benzo[b]thiophene-2-carboxamide] | 0.09 µM | 0.13 µM | 0.3 µM | 0.053 µM |
| CC(C)(c1cc(Cl)cc(NC(=O)c2cc3cc(NS(C)(=O)=O)ccc3s2)c1)c1cc(OCC(F)F)cc(OC(F)(F)F)c1 [Example 83, N-(3-chloro-5-(2-(3-(2,2-difluoroethoxy)-5-(trifluoromethoxy)phenyl)propan-2-yl)phenyl)-5-(methylsulfonamido)benzo[b]thiophene-2-carboxamide] | 0.023 µM | 0.025 µM | 0.1 µM | 0.012 µM |
